Assay results taken from patent US12016843B2, “Compositions and methods for the treatment of amyotrophic lateral sclerosis, parkinson's disease, parkinson's disease with dementia, dementia with lewy bodies, and multiple system atrophy” (priority 2019, dated 2024).

Experiments:
[1] = tested on: SOD1 G93A high copy transgenic mice; test: Lifespan (survival to humane end of life) in SOD1 G93A mouse model of ALS; assay type: in vivo; conditions: vs vehicle control
Protocol: Study Design. Three experimental groups of n=20 (10 male, 10 female) SOD1 G93A high copy transgenic mice were dosed daily via intraperitoneal administration of vehicle control; (R)-2-amino-N—((S)-1-(((S)-5-amino-1-(3-benzyl-1,2,4-oxadiazol-5-yl)pentyl)amino)-3-(4-hydroxy-2,6-dimethylphenyl)-1-oxopropan-2-yl)-5-guanidinopentanamide (as its tris-HCl salt-(Ia)) at 0.5 mg/kg; or (R)-2-amino-N—((S)-1-(((S)-5-amino-1-(3-benzyl-1,2,4-oxadiazol-5-yl)pentyl)amino)-3-(4-hydroxy-2,6-dimethylphenyl)-1-oxopropan-2-yl)-5-guanidinopentanamide (as its tris-HCl salt—(Ia)) at 5.0 mg/kg. Animals were dosed beginning at 8 weeks of age and dosing was continued until humane end of life (defined by the inability of animal to right itself from either side within 30 seconds when placed on its side). Experimental endpoints and in-life collections and observations were as follows: • 1. Bodyweight measurement. Daily recording of weight. • 2. Neurological scoring. Weekly NeuroScore, a qualitative assessment of neurological disease progression based upon a five-point grading system. […] The average force in grams of the 3 forepaw and 3 all-paws trials are analyzed with and without normalization to body weight. • 4. […]

[2] = tested on: corticospinal motor neurons derived from prp-TDP-43^A315T-UeGFP mouse model; test: Neurite length in primary corticospinal motor neurons from prp-TDP-43^A315T-UeGFP mice; assay type: cell-based; conditions: 10 nM, 100 nM and 1000 nM, vs DMSO vehicle
Protocol: Studies were performed in primary cells derived from the prp-TDP-43^A315T-UeGFP mouse model (Gautam, et al. Acta Neuropathol. 2019 January; 137(1): 47-69). Briefly, these mice express a pathogenic human TDP43 transgene which leads to severe structural alterations in the mitochondria, nucleus, and endoplasmic reticulum on the background of an eGFP reporter mouse. Both transgene (prp) and reporter (UCHL1) are driven by tissue specific promoter elements, leading to the generation of fluorescent green corticospinal motor neurons carrying the TDP43 mutation. Utilizing the endogenous fluorescence of the eGFP reporter, corticospinal motor neurons can be directly visualized in situ. Mixed cortical cultures were derived from the brains of prp-TDP-43^A315T-UeGFP mice and allowed to divide in serum free minimal medium for 3 cell divisions. Culture media +/− drug was removed and replenished daily. Doses of Compound Ia utilized in the experiment were 10 nM; 100 nM and 1000 nM. Drug was prepared in DMSO vehicle, and DMSO was used as vehicle control (<1% volume/volume). Cells were imaged using standard fluorescent microscopy techniques. Neurite length was calculated using automated imaging software (NIH Image J) on GFP expressing cells. Three independent biological replicates were performed, with a minimum of 10 motor neurons imaged per each replicate. […]

[3] = tested on: C57BL/6 mice injected with A53T mutant alpha-synuclein viral particles; test: Dopaminergic neuron loss in substantia nigra pars compacta induced by AAV9 human A53T alpha-synuclein (TH positive neuron counts); assay type: in vivo, mouse; conditions: 0.5 mg/kg or 5.0 mg/kg daily ip for 5 weeks, vs group A (A53T AAV, no drug)
Protocol: Dopaminergic neuron loss in the substantia nigra pars compacta (SNc) was induced in wildtype C57BL/6 mice using AAV9 mediated viral delivery of human alpha-synuclein harboring the pathogenic A53T mutation. 4×10^10 viral particles per SNc were injected bilaterally via stereotactic surgery. Animals were nine weeks of age when viral transduction was performed. Animals were treated daily with intraperitoneal administration of (Ia) beginning 24 hours before viral transduction and continued for 5 weeks. Experimental groups were as follows: • 1. Group A—AAV A53T injected, vehicle treatment (n=7) • 2. Group B1—AAV A53T injected, (Ia) at 0.5 mg/kg treatment (n=8) • 3. Group B2—AAV A53T injected, (Ia) at 5.0 mg/kg treatment (n=8) • 4. Group C1—Sham AAV9 injected, (Ia) at 0.5 mg/kg treatment (n=6) • 5. Group C2—Sham AAV9 injected, (Ia) at 5.0 mg/kg treatment (n=7)
Five weeks following viral transduction, animals were sacrificed and brains were removed and processed for immunohistochemistry and cell counts (i.e., number of TH positive neurons) in the substantia nigra pars compacta were performed via automated stereology. Serial sections were cut and stained with tyrosine hydroxylase (TH) to enumerate the number of dopaminergic neurons. Results are illustrated in FIGS. 6A and 6B; ** p<0.01 vs groups; *** p<0.001 vs group A; ^OO p<0.001 vs group C1 and C2.

In the case of `Cc1cc(O)cc(C)c1C[C@H](NC(=O)[C@H](N)CCCNC(=N)N)C(=O)N[C@@H](CCCCN)c1nc(Cc2ccccc2)no1.Cl.Cl.Cl` [Compound Ia, (R)-2-amino-N—((S)-1-(((S)-5-amino-1-(3-benzyl-1,2,4-oxadiazol-5-yl)pentyl)amino)-3-(4-hydroxy-2,6-dimethylphenyl)-1-oxopropan-2-yl)-5-guanidinopentanamide·3HCl], the lifespan ([1]; female SOD1 G93A mice, daily intraperitoneal) is reported as “no effects”, the lifespan ([1]; male SOD1 G93A mice, 5.0 mg/kg daily intraperitoneal) is reported as “significantly increased” and the “average neurite length per cell” value [2] is reported as “improved neurite length at all doses assessed”. For the same compound, the “mutant alpha-synuclein-induced loss of dopaminergic neurons in the substantia nigra (number of TH positive neurons)” value [3] was “significantly attenuated”.
